The results in this text go back to patent publication US20100216798A1, “FUSED HETEROCYCLES AS LCK INHIBITORS” (ASTELLAS PHARMA INC, priority 2005, published 2010).

SMILES strings stand for the structures.

The target in this test is T1, Purified Lck (Upstate) (Homo sapiens, UniProt P06239).
T1 construct: purchased Upstate
T1 sequence (P06239 whole entry, species assumed): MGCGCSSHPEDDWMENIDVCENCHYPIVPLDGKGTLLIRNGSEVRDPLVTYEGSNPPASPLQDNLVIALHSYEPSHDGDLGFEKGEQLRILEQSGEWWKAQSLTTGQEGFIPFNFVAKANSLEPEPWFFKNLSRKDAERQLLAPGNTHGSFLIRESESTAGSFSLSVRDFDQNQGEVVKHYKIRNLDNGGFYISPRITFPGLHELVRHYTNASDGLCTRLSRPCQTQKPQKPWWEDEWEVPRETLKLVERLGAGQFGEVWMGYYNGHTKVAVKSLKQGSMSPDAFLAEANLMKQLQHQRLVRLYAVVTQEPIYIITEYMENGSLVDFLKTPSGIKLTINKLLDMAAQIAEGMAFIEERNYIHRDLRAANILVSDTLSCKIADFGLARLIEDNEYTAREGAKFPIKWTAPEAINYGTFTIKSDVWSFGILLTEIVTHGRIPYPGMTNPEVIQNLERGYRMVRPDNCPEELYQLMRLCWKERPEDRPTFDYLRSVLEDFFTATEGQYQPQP
As to the kind of experiment: Assay for Lck Activity. It is filed as biochemical. Conditions: Src substrate peptide-coated plate ELISA, 0.05 mM ATP, 30° C. for 60 minutes, anti-phosphotyrosine HRP detection. The method, then:
The Src substrate peptide (Upstate) was coated onto 96-well Maxisorp plates (Nunc). Plates were sealed and incubated at 4° C., for 16 hours, washed three times with TBST (20 mM Tris-HCl pH 7.5, 150 mM NaCl and 0.1% Tween-20). The plates were blocked with 0.1% BSA and washed three times with TBST. Purified Lck (Upstate) was incubated in 100 mM Tris-HCl pH 7.5, 125 mM MgCl2, 25 mM MnCl2, 2 mM EGTA, 0.25 mM Sodium Vanadate, 2 mM DTT, 0.05 mM ATP with or without inhibitors at 30° C. for 60 minutes and washed with TBST three times. For quantification of phosphorylated tyrosines, plates were incubated with anti-phosphotyrosine, HRP conjugate (4G10, Upstate) for 1 hour at ambient temperature and washed three times with TBST. Detection was carried out using a color reagent, TMB (KPL). Ten minute after TMB addition the OD at 450 nm was measured.
A general note: In an ELISA, binding on a coated surface is turned into a signal by an enzyme label.
By IC50 is commonly meant the concentration needed to halve the response being measured. Low values mean greater potency, high ones weaker potency. In turn, `c1cc(Nc2ccc3ncc(-c4ccncc4)n3n2)ccn1` [Example 106, N,3-Di-4-pyridinylimidazo[1,2-b]pyridazin-6-amine] gave an IC50 of 410 nM.

In turn, `c1ccc(CNc2ccc3ncc(-c4ccncc4)n3n2)cc1` [Example 102, N-Benzyl-3-(4-pyridinyl)imidazo[1,2-b]pyridazin-6-amine] registered an IC50 of 310 nM.

For the compound `O[C@H]1CC[C@H](Nc2ccc3ncc(-c4ccnc(F)c4)n3n2)CC1` [Example 153, trans-4-{[3-(2-Fluoro-4-pyridinyl)imidazo[1,2-b]pyridazin-6-yl]amino}cyclohexanol], the IC50 was 97 nM.

The compound `c1cc(-c2cnc3ccc(NC45CC6CC(CC(C6)C4)C5)nn23)ccn1` [Example 249, N-1-Adamantyl-3-(4-pyridinyl)imidazo[1,2-b]pyridazin-6-amine] registered an IC50 of 320 nM.

Regarding `c1cc(-c2cnc3ccc(NC4CCOCC4)nn23)ccn1` [Example 16, 3-(4-pyridinyl)-N-(tetrahydro-2H-pyran-4-yl)imidazo[1,2-b]pyridazin-6-amine], the IC50 was determined as 460 nM.

Compound `Oc1c(Cl)cc(-c2cnc3ccc(N[C@H]4CC[C@H](O)CC4)nn23)cc1Cl` [Example 127, 2,6-dichloro-4-{6-[(trans-4-hydroxycyclohexyl)amino]imidazo[1,2-b]pyridazin-3-yl}phenol] came in with an IC50 of 81 nM.

Turning to `c1cc(-c2cnc3ccc(NC4CCCCC4)nn23)ccn1` [Example 44, N-Cyclohexyl-3-(4-pyridinyl)imidazo[1,2-b]pyridazin-6-amine], inhibition was half-maximal at 380 nM (IC50).

In the case of `c1ccc(Nc2ccc3ncc(-c4ccncc4)n3n2)cc1` [Example 47, N-Phenyl-3-(4-pyridinyl)imidazo[1,2-b]pyridazin-6-amine], half-maximal inhibition (IC50) was put at 350 nM.
